Measurements: article PMC9974930 (Journal of medicinal chemistry, 2023)

target: T1, recombinant human sEH (HsEH) (Homo sapiens, UniProt P34913); assay: biochemical; conditions: not given
T1 sequence (P34913 1-555): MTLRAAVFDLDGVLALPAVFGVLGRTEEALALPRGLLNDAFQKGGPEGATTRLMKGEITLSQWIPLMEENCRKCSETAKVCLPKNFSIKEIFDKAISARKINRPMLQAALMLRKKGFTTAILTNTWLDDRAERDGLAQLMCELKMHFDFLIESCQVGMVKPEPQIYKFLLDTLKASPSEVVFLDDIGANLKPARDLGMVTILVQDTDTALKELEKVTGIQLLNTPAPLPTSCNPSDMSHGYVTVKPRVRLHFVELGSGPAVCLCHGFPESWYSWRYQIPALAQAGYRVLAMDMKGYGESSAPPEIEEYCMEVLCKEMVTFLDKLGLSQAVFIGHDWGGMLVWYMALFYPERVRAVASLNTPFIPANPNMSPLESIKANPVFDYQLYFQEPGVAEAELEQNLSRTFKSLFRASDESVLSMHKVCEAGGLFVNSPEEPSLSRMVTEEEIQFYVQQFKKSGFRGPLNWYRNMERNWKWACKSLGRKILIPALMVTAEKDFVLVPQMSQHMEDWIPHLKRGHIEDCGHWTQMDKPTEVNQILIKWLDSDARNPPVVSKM

SMILES | IC50 [nM]
CCC(=O)N1CCC(CC(=O)N2CCCN(Cc3ccc(NC(=O)N[C@@]45C[C@@H]6C[C@@](C)(C[C@@](C)(C6)C4)C5)c(F)c3)CC2)CC1 [I2, 1-((1r,3R,5S,7r)-3,5-Dimethyladamantan-1-yl)-3-(2-fluoro-4-((4-(2-(1-propionylpiperidin-4-yl)acetyl)-1,4-diazepan-1-yl)methyl)phenyl)urea] | 0.35

same assay, conditions: LLE = pIC50-cLogP

SMILES | LLE (ligand lipophilicity efficiency)
C[C@]12C[C@@H]3C[C@](C)(C1)C[C@@](NC(=O)Nc1ccc(CN4CCCC(C(=O)O)C4)cc1F)(C3)C2 (stereo partly drawn) [D, 1-(4-(3-((1r,3R,5S,7r)-3,5-Dimethyladamantan-1-yl)ureido)-3-fluorobenzyl) piperidine-3-carboxylic acid] | 7.656
C[C@]12C[C@@H]3C[C@](C)(C1)C[C@@](NC(=O)Nc1ccc(CN4CCC(C(N)=O)CC4)cc1F)(C3)C2 [E1, 1-(4-(3-((1r,7r)-3,5-Dimethyladamantan-1-yl)ureido)-3-fluorobenzyl)piperidine-4-carboxamide] | 5.557
CC(O)CNC(=O)C1CCN(Cc2ccc(NC(=O)N[C@@]34C[C@@H]5C[C@@](C)(C[C@@](C)(C5)C3)C4)c(F)c2)CC1 (stereo partly drawn) [E2, 1-(4-(3-((1r,7r)-3,5-Dimethyladamantan-1-yl)ureido)-3-fluorobenzyl)-N-(2-hydroxypropyl)piperidine-4-carboxamide] | 3.267
C[C@]12C[C@@H]3C[C@](C)(C1)C[C@@](NC(=O)Nc1ccc(CN4CCC(C(=O)NC(CO)CO)CC4)cc1F)(C3)C2 [E3, N-(1,3-Dihydroxypropan-2-yl)-1-(4-(3-((1r,7r)-3,5-dimethyladamantan-1-yl)ureido)-3-fluorobenzyl)piperidine-4-carboxamide] | 5.090
C[C@]12C[C@@H]3C[C@](C)(C1)C[C@@](NC(=O)Nc1ccc(CN4CCC(C(=O)NC(CO)(CO)CO)CC4)cc1F)(C3)C2 [E4, N-(1,3-Dihydroxy-2-(hydroxymethyl)propan-2-yl)-1-(4-(3-((1r,7r)-3,5-dimethyladamantan-1-yl)ureido)-3-fluorobenzyl)piperidine-4-carboxamide] | 6.459
C[C@]12C[C@@H]3C[C@](C)(C1)C[C@@](NC(=O)Nc1ccc(CN4CCC(C(=O)N(CCO)CCO)CC4)cc1F)(C3)C2 [E5, 1-(4-(3-((1r,7r)-3,5-Dimethyladamantan-1-yl)ureido)-3-fluorobenzyl)-N,N-bis(2-hydroxyethyl)piperidine-4-carboxamide] | 5.585
CC(=O)N1CCCN(C(=O)C2CCCN(C(=O)c3ccc(NC(=O)N[C@@]45C[C@@H]6C[C@@](C)(C[C@@](C)(C6)C4)C5)c(F)c3)C2)CC1 (stereo partly drawn) [F1, 1-(4-(3-(4-Acetyl-1,4-diazepane-1-carbonyl)piperidine-1-carbonyl)-2-fluorophenyl)-3-((1r,3R,5S,7r)-3,5-dimethyladamantan-1-yl)urea] | 6.801
CCC(=O)N1CCCN(C(=O)C2CCCN(C(=O)c3ccc(NC(=O)N[C@@]45C[C@@H]6C[C@@](C)(C[C@@](C)(C6)C4)C5)c(F)c3)C2)CC1 (stereo partly drawn) [F2, 1-((1r,3R,5S,7r)-3,5-Dimethyladamantan-1-yl)-3-(2-fluoro-4-(3-(4-propionyl-1,4-diazepane-1-carbonyl)piperidine-1-carbonyl)phenyl)urea] | 6.164
CCC(C)C(=O)N1CCCN(C(=O)C2CCCN(C(=O)c3ccc(NC(=O)N[C@@]45C[C@@H]6C[C@@](C)(C[C@@](C)(C6)C4)C5)c(F)c3)C2)CC1 (stereo partly drawn) [F3, 1-((1r,3R,5S,7r)-3,5-Dimethyladamantan-1-yl)-3-(2-fluoro-4-(3-(4-(2-methylbutanoyl) −1,4-diazepane-1-carbonyl)piperidine-1-carbonyl)phenyl)urea] | 4.847
CCC(C)C(=O)N1CCCN(C(=O)C2CCCN(Cc3ccc(NC(=O)N[C@@]45C[C@@H]6C[C@@](C)(C[C@@](C)(C6)C4)C5)c(F)c3)C2)CC1 (stereo partly drawn) [G2, 1-((1r,3R,5S,7r)-3,5-Dimethyladamantan-1-yl)-3-(2-fluoro-4-((3-(4-(2-methylbutanoyl) −1,4-diazepane-1-carbonyl)piperidin-1-yl)methyl)phenyl)urea] | 4.986
C=CC(=O)N1CCCN(C(=O)C2CCCN(Cc3ccc(NC(=O)N[C@@]45C[C@@H]6C[C@@](C)(C[C@@](C)(C6)C4)C5)c(F)c3)C2)CC1 (stereo partly drawn) [G3, 1-(4-((3-(4-acryloyl-1,4-Diazepane-1-carbonyl)piperidin-1-yl)methyl)-2-fluorophenyl) −3-((1r,3R,5S,7r)-3,5-dimethyladamantan-1-yl)urea] | 5.598
C=C(C)C(=O)N1CCCN(C(=O)C2CCCN(Cc3ccc(NC(=O)N[C@@]45C[C@@H]6C[C@@](C)(C[C@@](C)(C6)C4)C5)c(F)c3)C2)CC1 (stereo partly drawn) [G4, 1-((1r,3R,5S,7r)-3,5-Dimethyladamantan-1-yl)-3-(2-fluoro-4-((3-(4-methacryloyl-1,4-diazepane-1-carbonyl)piperidin-1-yl)methyl)phenyl)urea] | 4.821
CCC(=O)N1CCC(CC(=O)N2CCCN(C(=O)c3ccc(NC(=O)N[C@@]45C[C@@H]6C[C@@](C)(C[C@@](C)(C6)C4)C5)c(F)c3)CC2)CC1 [H1, 1-((1r,3R,5S,7r)-3,5-Dimethyladamantan-1-yl)-3-(2-fluoro-4-(4-(2-(1-propionylpiperidin-4-yl)acetyl)-1,4-diazepane-1-carbonyl)phenyl)urea] | 5.848
C=C(C)C(=O)N1CCC(CC(=O)N2CCCN(C(=O)c3ccc(NC(=O)N[C@@]45C[C@@H]6C[C@@](C)(C[C@@](C)(C6)C4)C5)cc3)CC2)CC1 [H3, 1-((1r,3R,5S,7r)-3,5-Dimethyladamantan-1-yl)-3-(4-(4-(2-(1-methacryloylpiperidin-4-yl)acetyl)-1,4-diazepane-1-carbonyl)phenyl)urea] | 5.530
CC(CN(C)C)N1CCC(CC(=O)N2CCCN(C(=O)c3ccc(NC(=O)N[C@@]45C[C@@H]6C[C@@](C)(C[C@@](C)(C6)C4)C5)c(F)c3)CC2)CC1 (stereo partly drawn) [H4, 1-((1r,3R,5S,7r)-3,5-Dimethyladamantan-1-yl)-3-(4-(4-(2-(1-(1-(dimethylamino)propan-2-yl)piperidin-4-yl)acetyl)-1,4-diazepane-1-carbonyl)-2-fluorophenyl)urea] | 3.920
CC(=O)N1CCC(CC(=O)N2CCCN(Cc3ccc(NC(=O)N[C@@]45C[C@@H]6C[C@@](C)(C[C@@](C)(C6)C4)C5)c(F)c3)CC2)CC1 [I1, 1-(4-((4-(2-(1-Acetylpiperidin-4-yl)acetyl)-1,4-diazepan-1-yl)methyl)-2-fluorophenyl)-3-((1r,3R,5S,7r)-3,5-dimethyladamantan-1-yl)urea] | 6.119
CCC(=O)N1CCC(CC(=O)N2CCCN(Cc3ccc(NC(=O)N[C@@]45C[C@@H]6C[C@@](C)(C[C@@](C)(C6)C4)C5)c(F)c3)CC2)CC1 [I2, 1-((1r,3R,5S,7r)-3,5-Dimethyladamantan-1-yl)-3-(2-fluoro-4-((4-(2-(1-propionylpiperidin-4-yl)acetyl)-1,4-diazepan-1-yl)methyl)phenyl)urea] | 5.623
CCC(C)C(=O)N1CCC(CC(=O)N2CCCN(Cc3ccc(NC(=O)N[C@@]45C[C@@H]6C[C@@](C)(C[C@@](C)(C6)C4)C5)c(F)c3)CC2)CC1 (stereo partly drawn) [I3, 1-((1r,3R,5S,7r)-3,5-Dimethyladamantan-1-yl)-3-(2-fluoro-4-((4-(2-(1-(2-methylbutanoyl)piperidin-4-yl)acetyl)-1,4-diazepan-1-yl)methyl)phenyl)urea] | 4.337
COC(=O)N1CCC(CC(=O)N2CCCN(Cc3ccc(NC(=O)N[C@@]45C[C@@H]6C[C@@](C)(C[C@@](C)(C6)C4)C5)c(F)c3)CC2)CC1 [I4, Methyl-4-(2-(4-(4-(3-((1r,3R,5S,7r)-3,5-dimethyladamantan-1-yl)ureido)-3-fluorobenzyl)-1,4-diazepan-1-yl)-2-oxoethyl)piperidine-1-carboxylate] | 5.125
C[C@]12C[C@@H]3C[C@](C)(C1)C[C@@](NC(=O)Nc1ccc(CN4CCCN(C(=O)CC5CCN(CCO)CC5)CC4)cc1F)(C3)C2 [I5, 1-((1r,3R,5S,7r)-3,5-Dimethyladamantan-1-yl)-3-(2-fluoro-4-((4-(2-(1-(2-hydroxyethyl)piperidin-4-yl)acetyl)-1,4-diazepan-1-yl)methyl)phenyl)urea] | 4.937
CN(C)CCN1CCC(CC(=O)N2CCCN(Cc3ccc(NC(=O)N[C@@]45C[C@@H]6C[C@@](C)(C[C@@](C)(C6)C4)C5)c(F)c3)CC2)CC1 [I7, 1-((1r,3R,5S,7r)-3,5-Dimethyladamantan-1-yl)-3-(4-((4-(2-(1-(2-(dimethylamino)ethyl)piperidin-4-yl)acetyl)-1,4-diazepan-1-yl)methyl)-2-fluorophenyl)urea] | 4.517
CCN(CC)CCN1CCC(CC(=O)N2CCCN(Cc3ccc(NC(=O)N[C@@]45C[C@@H]6C[C@@](C)(C[C@@](C)(C6)C4)C5)c(F)c3)CC2)CC1 [I8, 1-(4-((4-(2-(1-(2-(Diethylamino)ethyl)piperidin-4-yl)acetyl)-1,4-diazepan-1-yl)methyl) −2-fluorophenyl)-3-((1r,3R,5S,7r)-3,5-dimethyladamantan-1-yl)urea] | 3.910

test system: CFA-induced AIA mice; assay: CFA-induced arthritis; format: in vivo, Kunming mice; conditions: 10 mg / kg ip

SMILES | reduced foot swelling, thickness [%] | reduced foot swelling, width [%]
Cc1ccc(-c2cc(C(F)(F)F)nn2-c2ccc(S(N)(=O)=O)cc2)cc1 [celecoxib, reference compound] | 17.99 | 6.4

same assay, conditions: 10 mg / kg ip, 24 h of drug treatment

SMILES | body weight change
Cc1ccc(-c2cc(C(F)(F)F)nn2-c2ccc(S(N)(=O)=O)cc2)cc1 [celecoxib, reference compound] | increase in body weight

same assay, conditions: 10 mg / kg ip, hot plate

SMILES | effect on pain threshold, in words
Cc1ccc(-c2cc(C(F)(F)F)nn2-c2ccc(S(N)(=O)=O)cc2)cc1 [celecoxib, reference compound] | did not significantly raise the pain threshold at 2 h
